Measurements taken from ChEMBL document CHEMBL5674860, “Optimized Dual-Glo Assay to identify co-culture-induced drug vulnerabilities in 3D CRC models” (2024).

Tests used:
Type in all cases: functional, Homo sapiens
Design in all cases: dose or concentration left out as unconfirmed
Colon cancer organoid [1] = test: Optimized Dual-Glo assay to identify co-culture induced drug vulnerabilities using donated chemical probes and chemogenomics kinase set in O14 CRC organoid and F14 CAF mono and co-culture. […] Cell viability is reported both mono and co-culture models.
Colon cancer organoid [2] = test: Optimized Dual-Glo assay to identify co-culture induced drug vulnerabilities using donated chemical probes and chemogenomics kinase set in O06 CRC organoid and F06 CAF mono and co-culture. […] Cell viability is reported both mono and co-culture models.
Colon cancer organoid [3] = test: Optimized Dual-Glo assay to identify co-culture induced drug vulnerabilities using donated chemical probes and chemogenomics kinase set in O20 CRC organoid and F20 CAF mono and co-culture. […] Cell viability is reported both mono and co-culture models.
[4] = Culture type Co-Culture, Transduced with Lucferase2-P2A-EGFP lentivirus
[5] = Culture type Co-Culture, Transduced with Renilla-dsRed lentivirus
[6] = Culture type Mono-Culture, Transduced with Lucferase2-P2A-EGFP lentivirus
[7] = Culture type Mono-Culture, Transduced with Renilla-dsRed lentivirus

## Cc1noc([C@H]2C[C@@H](c3ccc(C(F)(F)F)cc3)CN(C(=O)N3CCS(=O)(=O)C3)C2)n1 [BAY-448]
Colon cancer organoid [1]; [4]
  Cell Viability: 96.3881%
Colon cancer organoid [1]; [5]
  Cell Viability: 112.512%
Colon cancer organoid [1]; [6]
  Cell Viability: 127.621%
Colon cancer organoid [1]; [7]
  Cell Viability: 97.5385%
Colon cancer organoid [2]; [4]
  Cell Viability: 105.176%
Colon cancer organoid [2]; [5]
  Cell Viability: 127.928%
Colon cancer organoid [2]; [6]
  Cell Viability: 104.997%
Colon cancer organoid [2]; [7]
  Cell Viability: 116.857%
Colon cancer organoid [3]; [4]
  Cell Viability: 115.252%
Colon cancer organoid [3]; [5]
  Cell Viability: 84.5218%
Colon cancer organoid [3]; [6]
  Cell Viability: 119.935%
Colon cancer organoid [3]; [7]
  Cell Viability: 108.615%

## Nc1nc(NCc2ccccc2)nc(-c2cccc(CO)c2)n1 [ZINC32547799]
Colon cancer organoid [1]; [4]
  Cell Viability: 88.7631%
Colon cancer organoid [1]; [5]
  Cell Viability: 96.1691%
Colon cancer organoid [1]; [6]
  Cell Viability: 137.995%
Colon cancer organoid [1]; [7]
  Cell Viability: 97.2983%
Colon cancer organoid [2]; [4]
  Cell Viability: 97.3324%
Colon cancer organoid [2]; [5]
  Cell Viability: 116.001%
Colon cancer organoid [2]; [6]
  Cell Viability: 131.751%
Colon cancer organoid [2]; [7]
  Cell Viability: 105.708%
Colon cancer organoid [3]; [4]
  Cell Viability: 123.978%
Colon cancer organoid [3]; [5]
  Cell Viability: 66.6285%
Colon cancer organoid [3]; [6]
  Cell Viability: 56.0193%
Colon cancer organoid [3]; [7]
  Cell Viability: 93.8657%

## CC(C)(C)OC(=O)N1CCCC1CNC1CCC(c2cc(F)ccc2F)(S(=O)(=O)c2ccc(Cl)cc2)CC1 (stereo not drawn) [GSI-NC]
Colon cancer organoid [1]; [4]
  Cell Viability: 82.5384%
Colon cancer organoid [1]; [5]
  Cell Viability: 107.99%
Colon cancer organoid [1]; [6]
  Cell Viability: 97.33%
Colon cancer organoid [1]; [7]
  Cell Viability: 95.7632%
Colon cancer organoid [2]; [4]
  Cell Viability: 109.794%
Colon cancer organoid [2]; [5]
  Cell Viability: 188.651%
Colon cancer organoid [2]; [6]
  Cell Viability: 83.1857%
Colon cancer organoid [2]; [7]
  Cell Viability: 79.5795%
Colon cancer organoid [3]; [4]
  Cell Viability: 93.8933%
Colon cancer organoid [3]; [5]
  Cell Viability: 100.789%
Colon cancer organoid [3]; [6]
  Cell Viability: 108.621%
Colon cancer organoid [3]; [7]
  Cell Viability: 95.0953%

## Cn1cc(CCn2cnc(-c3cnn(C)c3)c2-c2ccc(C#N)cc2)cn1
Colon cancer organoid [1]; [4]
  Cell Viability: 112.655%
Colon cancer organoid [1]; [5]
  Cell Viability: 89.8106%
Colon cancer organoid [1]; [6]
  Cell Viability: 89.6485%
Colon cancer organoid [1]; [7]
  Cell Viability: 97.1773%
Colon cancer organoid [2]; [4]
  Cell Viability: 101.212%
Colon cancer organoid [2]; [5]
  Cell Viability: 117.261%
Colon cancer organoid [2]; [6]
  Cell Viability: 137.811%
Colon cancer organoid [2]; [7]
  Cell Viability: 99.9578%
Colon cancer organoid [3]; [4]
  Cell Viability: 162.016%
Colon cancer organoid [3]; [5]
  Cell Viability: 107.326%
Colon cancer organoid [3]; [6]
  Cell Viability: 101.421%
Colon cancer organoid [3]; [7]
  Cell Viability: 89.845%

## CN1CCN(c2ccc(-c3cccc(CN4CCOCC4)c3)cc2NC(=O)c2c[nH]c(=O)cc2C(F)(F)F)CC1
Colon cancer organoid [1]; [4]
  Cell Viability: 81.9859%
Colon cancer organoid [1]; [5]
  Cell Viability: 136.534%
Colon cancer organoid [1]; [6]
  Cell Viability: 110.455%
Colon cancer organoid [1]; [7]
  Cell Viability: 90.7791%
Colon cancer organoid [2]; [4]
  Cell Viability: 91.1397%
Colon cancer organoid [2]; [5]
  Cell Viability: 122.014%
Colon cancer organoid [2]; [6]
  Cell Viability: 99.8143%
Colon cancer organoid [2]; [7]
  Cell Viability: 114.421%
Colon cancer organoid [3]; [4]
  Cell Viability: 82.2903%
Colon cancer organoid [3]; [5]
  Cell Viability: 116.555%
Colon cancer organoid [3]; [6]
  Cell Viability: 112.073%
Colon cancer organoid [3]; [7]
  Cell Viability: 84.4992%

## CCCOc1ccn2c(C(C)=O)cc(-c3cccc(OC)c3)c2c1
Colon cancer organoid [1]; [4]
  Cell Viability: 84.3946%
Colon cancer organoid [1]; [5]
  Cell Viability: 120.115%
Colon cancer organoid [1]; [6]
  Cell Viability: 124.987%
Colon cancer organoid [1]; [7]
  Cell Viability: 98.1469%
Colon cancer organoid [2]; [4]
  Cell Viability: 110.241%
Colon cancer organoid [2]; [5]
  Cell Viability: 146.669%
Colon cancer organoid [2]; [6]
  Cell Viability: 131.845%
Colon cancer organoid [2]; [7]
  Cell Viability: 119.651%
Colon cancer organoid [3]; [4]
  Cell Viability: 76.4747%
Colon cancer organoid [3]; [5]
  Cell Viability: 110.044%
Colon cancer organoid [3]; [6]
  Cell Viability: 113.084%
Colon cancer organoid [3]; [7]
  Cell Viability: 103.998%

## C[C@@H]1CCNC(=O)c2cc3ccc(C(=O)Nc4nc5ccccc5n4CCCN(C)C)cc3n21
Colon cancer organoid [1]; [4]
  Cell Viability: 91.1023%
Colon cancer organoid [1]; [5]
  Cell Viability: 83.3009%
Colon cancer organoid [1]; [6]
  Cell Viability: 101.537%
Colon cancer organoid [1]; [7]
  Cell Viability: 86.0489%
Colon cancer organoid [2]; [4]
  Cell Viability: 65.6776%
Colon cancer organoid [2]; [5]
  Cell Viability: 63.6239%
Colon cancer organoid [2]; [6]
  Cell Viability: 102.952%
Colon cancer organoid [2]; [7]
  Cell Viability: 73.3213%
Colon cancer organoid [3]; [4]
  Cell Viability: 64.9365%
Colon cancer organoid [3]; [5]
  Cell Viability: 147.158%
Colon cancer organoid [3]; [6]
  Cell Viability: 51.9591%
Colon cancer organoid [3]; [7]
  Cell Viability: 102.286%

## c1ccc(C2CCN(c3cnc4c(N5CCOCC5)nccn34)CC2)cc1
Colon cancer organoid [1]; [4]
  Cell Viability: 111.149%
Colon cancer organoid [1]; [5]
  Cell Viability: 110.22%
Colon cancer organoid [1]; [6]
  Cell Viability: 155.031%
Colon cancer organoid [1]; [7]
  Cell Viability: 89.751%
Colon cancer organoid [2]; [4]
  Cell Viability: 98.2025%
Colon cancer organoid [2]; [5]
  Cell Viability: 98.7191%
Colon cancer organoid [2]; [6]
  Cell Viability: 229.272%
Colon cancer organoid [2]; [7]
  Cell Viability: 111.241%
Colon cancer organoid [3]; [4]
  Cell Viability: 90.2822%
Colon cancer organoid [3]; [5]
  Cell Viability: 108.246%
Colon cancer organoid [3]; [6]
  Cell Viability: 142.742%
Colon cancer organoid [3]; [7]
  Cell Viability: 115.191%

## CN(C)C(=O)c1ccc(-c2cc(C(=O)N(C)C3CCCC3)no2)cc1O
Colon cancer organoid [1]; [4]
  Cell Viability: 78.738%
Colon cancer organoid [1]; [5]
  Cell Viability: 108.435%
Colon cancer organoid [1]; [6]
  Cell Viability: 99.3256%
Colon cancer organoid [1]; [7]
  Cell Viability: 115.997%
Colon cancer organoid [2]; [4]
  Cell Viability: 126.057%
Colon cancer organoid [2]; [5]
  Cell Viability: 129.278%
Colon cancer organoid [2]; [6]
  Cell Viability: 114.98%
Colon cancer organoid [2]; [7]
  Cell Viability: 129.58%
Colon cancer organoid [3]; [4]
  Cell Viability: 121.535%
Colon cancer organoid [3]; [5]
  Cell Viability: 110.433%
Colon cancer organoid [3]; [6]
  Cell Viability: 107.717%
Colon cancer organoid [3]; [7]
  Cell Viability: 123.756%
